From US5942494A, “Stimulation of gene expression and synthesis of heat shock protein 72/73 (HSP 70)” (The Trustees of Columbia University in the City of New York, priority 1996, dated 1999)
Square brackets hold non-standard residues; d marks the D form. Peptide text beside a SMILES is read from it. Nle = CCCC[C@H](N)C(=O)O

Columns and labels:
Bip = experiment: Immunoprecipitation of Bip from radiolabeled HepG2 cells; type: cell-based, human; details: HepG2, ALLN 4 hours
Protocol: FIGS. 7A-7B: Effects of ALLN on the biosynthesis of other members of Hsp family and related proteins. HepG2 cells were pre-treated and radiolabeled with or without ALLN for 4 hours as described in FIG. 1. Cell lysates were used for SDS-PAGE (A), or for immunoprecipitation with anti-Hsp25, -Hsp27, -Hsp60, -Hsp70, -Hsp86, -Hsp90, -Hsp104, -Bip, or -albumin antibodies respectively (1 μg/ml) (B). Because the anti-Hsp25, -Hsp27, -Hsp60 and Hsp90 antibodies are from a rat source, rabbit anti-rat IgG antibody was added after the first incubation, and the incubation was extended for another 1 hour at 4° C. before collection with protein A-Sepharose.Immunoprecipitates were loaded for SDS-PAGE and aliquoted for scintillation counting and plotting. Each value was presented as mean ±S.D. from three individual culture dishes.
HepG2 cells were preincubated for 4 hours in serum-free MEM and then radiolabeled with ^3 H-Leucine (150 μCi/ml) in a serum-free, leucine-free medium. […] Cell lysates containing equal amounts of trichloroacetic acid (TCA)-insoluble radioactivity were used for immunoprecipitations by incubating with individual monoclonal antibody (1 μg/ml) for 2.5 hours at 4° C. […]

HSF1 = experiment: Western blot of steady-state HSF1 protein levels in HepG2 whole cell extracts; type: cell-based, human; details: ALLN 40 μg/ml, 2 hours, with or without cycloheximide
Protocol: FIGS. 6A-6B: ALLN affects the trimerization of HSF. HepG2 cells were treated with serum-free MEM containing 1.5% BSA for 2 hours at 37° C. without any additions (lane1), at 37 ° C. but containing 40μg/ml of ALLN in the medium (lane2), at 37° C. in a medium containing both ALLN and 50 μg/ml of cycloheximide (lane3) , at 42° C. alone (lane4), or at 42° C. plus cycloheximide in the medium (lane5). Cell lysates were prepared as described under Experimental Details. The lysates were either directly run on the SDS-PAGE (A) to show the steady-state protein levels of HSF1 or subjected to cross-linking with ethylene glycol bis sucrinimidylsuccinate (EGS) before running the gel (B) to show the oligomeric forms of HSF1. The proteins were then transfered to a nitrocellulose membrane and immunoblotted with anti-human HSF1 antibody. Arrows on the right side indicates the monomeric, dimeric or trimeric forms of HSF1, respectively. This experiment was repeated three times with identical results.
For measurement of the steady-state HSF1 protein levels, whole cell extracts were prepared by lysing the cells directly with 2×SDS-sample buffer (Maniatis, et al., 1982). For chemical cross-linking experiments, whole-cell extracts were prepared as described (Mosser, et al., 1988). Briefly, the cold PBS-washed cell pellets were quickly and repeatedly frozen in liquid nitrogen. […]

**Q.** `CCCC[C@@H](C=O)NC(=O)[C@H](CC(C)C)NC(=O)[C@H](CC(C)C)NC(C)=O` [ALLN, N-acetyl-leucyl-leucyl-norleucinal] (Ac-Leu-Leu-[Nle]-aldehyde) was tested. Which “Effect on Bip” value (Bip) did it give?
**A.** no effects

**Q.** And the “Steady-state levels of HSF1 in whole cell extracts” value (HSF1)?
**A.** not significantly affected
